From paper PMC10635480, “An engineered thermally tolerant apo-cytochrome scaffold for metal-less incorporation of heme derivative” (PLOS ONE, 2023)

What was measured:
[1] = target: T1, rC552 C14A (cytochrome c552, apo-form) (Thermus thermophilus, UniProt Q5SME3, C31A); assay: time-dependent UV-Vis reconstitution; assay type: binding; conditions: equimolar 5 uM, 25 °C
T1 construct: gene cycA; recombinant, E. coli BL21(DE3), pET-rC552 C14A; no tag mentioned; heme-free apo-form isolated by butyl-Sepharose
T1 sequence (Q5SME3 18-148 C31A): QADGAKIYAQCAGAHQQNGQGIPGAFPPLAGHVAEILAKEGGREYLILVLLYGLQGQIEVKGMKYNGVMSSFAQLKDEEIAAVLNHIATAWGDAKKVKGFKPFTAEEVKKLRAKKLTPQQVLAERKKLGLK

[2] = target: T2, rC552 C14A (cytochrome c552, apo-form) (Thermus thermophilus, UniProt Q5SME3, C31A/M86F); assay type: binding
T2 construct: gene cycA; recombinant, E. coli BL21(DE3), pET-rC552 C14A; no tag mentioned; heme-free apo-form isolated by butyl-Sepharose
T2 sequence (Q5SME3 18-148 C31A/M86F): as the sequence (Q5SME3 18-148 C31A) above, with M69F counted along it

Tm of reconstituted protein (not dTm) [2]: 58 °C
Structure (SMILES): C=CC1=C(C)c2cc3[nH]c(cc4nc(cc5[nH]c(cc1n2)c(C)c5CCC(=O)O)C(CCC(=O)O)=C4C)c(C)c3C=C [protoporphyrin IX (metal-free)]
time-dependent UV-Vis reconstitution [1]: Time-dependent UV–Vis spectra show a rather slow reconstitution process while mixing equal concentrations
